The numbers were not newly measured in patent US20170095484A1, “METHOD OF TREATING RESISTANT NON-HODGKIN LYMPHOMA, MEDULLOBLASTOMA, AND/OR ALK+NON-SMALL CELL LUNG CANCER USING THIENOTRIAZOLODIAZEPINE COMPOUNDS” (ONCOETHIX GMBH, priority 2014, published 2017), which cites them from elsewhere.

One data set concerns the target mTOR (Homo sapiens, UniProt P42345).
For data set [1], the target named is Bruton's tyrosine kinase (BTK) (Homo sapiens, UniProt Q06187). Conditions: in intact cells and in cell-free systems.
Data set [2] concerns Lyn, Syk, PKA, casein kinase I, ERK1, ERK2 and p38 kinase.
In a further data set the test system is HDAC. Conditions: isoform not stated.

Sequence of Bruton's tyrosine kinase (BTK) (Q06187 whole entry): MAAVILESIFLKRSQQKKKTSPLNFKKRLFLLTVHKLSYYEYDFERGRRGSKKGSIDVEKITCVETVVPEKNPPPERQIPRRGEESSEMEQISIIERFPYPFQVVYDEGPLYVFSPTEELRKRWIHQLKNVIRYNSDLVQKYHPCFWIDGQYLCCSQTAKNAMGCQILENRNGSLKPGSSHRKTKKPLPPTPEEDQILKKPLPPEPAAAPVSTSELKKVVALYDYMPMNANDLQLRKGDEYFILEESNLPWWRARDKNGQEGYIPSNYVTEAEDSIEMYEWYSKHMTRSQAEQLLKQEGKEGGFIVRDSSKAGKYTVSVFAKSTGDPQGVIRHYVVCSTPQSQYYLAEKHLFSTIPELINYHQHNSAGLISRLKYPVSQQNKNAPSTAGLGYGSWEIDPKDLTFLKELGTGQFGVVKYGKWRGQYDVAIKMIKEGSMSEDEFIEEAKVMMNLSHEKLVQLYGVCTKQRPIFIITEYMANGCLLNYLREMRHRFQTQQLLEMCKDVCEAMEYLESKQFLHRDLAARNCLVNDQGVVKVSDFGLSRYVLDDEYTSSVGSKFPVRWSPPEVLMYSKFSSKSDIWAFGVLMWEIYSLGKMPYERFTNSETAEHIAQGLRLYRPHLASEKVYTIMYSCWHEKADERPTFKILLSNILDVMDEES

A word on the IC50: it is the concentration at which inhibition is half-maximal. With `CO[C@H]1C[C@@H]2CC[C@@H](C)[C@@](O)(O2)C(=O)C(=O)N2CCCC[C@H]2C(=O)O[C@H]([C@H](C)C[C@@H]2CC[C@@H](OCCO)[C@H](OC)C2)CC(=O)[C@H](C)/C=C(\C)[C@@H](O)[C@@H](OC)C(=O)[C@H](C)C[C@H](C)/C=C/C=C/C=C/1C` [Everolimus], the IC50 on mTOR was 1.6 to 2.4 nM.
With `CC1=C(O)C(=O)[C@@H]2O[C@@H]2C1=O` [Terreic acid], the “effect on the activity of PKC” value in the data set with PKC is “without affecting the activity of PKC”. In addition, in data set [1], the “effect on the catalytic activity of BTK” value was “Inhibits the catalytic activity of BTK”. In addition, the “effect on the activities of Lyn, Syk, PKA, casein kinase I, ERK1, ERK2 and p38 kinase” value in data set [2] is given as “little or no effect”.
Take Trichostatin A: in the data set with HDAC, the IC50 is about 1.8 nM.
